Source: patent US8410309B2, “Phenoxy carboxylic acid compounds and compositions for delivering active agents” (Emisphere Technologies, Inc., priority 1999, dated 2013)
“And” between values parts separate entries of the source, which are not always exact repeats. Equal entries are not always repeated. Marks after values point to notes of the source that are not given here.

Experiments:
[1] = Heparin oral/intracolonic delivery, clotting time by activated partial thromboplastin time (APTT); assay type: in vivo, Sprague-Dawley rats; conditions: rats, baseline about 20 seconds
Experimental: Oral gavage (PO) and/or intracolonic (IC) dosing solutions containing a delivery agent compound and heparin sodium USP were prepared in 25% aqueous propylene glycol. […] This dry mixture was dissolved in 25% v/v aqueous propylene glycol, vortexed, and placed in a sonicator (about 37° C.). The pH was adjusted to about 7 (6.5 to 8.5) with aqueous NaOH (2N). The dosing solution was sonicated to produce a clear solution. The final volume was adjusted to about 3.0 ml.
(§1) The typical dosing and sampling protocols were as follows. […] The dosing solution was expressed slowly into the colon by pressing the syringe plunger.
Citrated blood samples were collected by cardiac puncture following the administration of ketamine (88 mg/kg), typically at 0.25, 0.5, 1.0 and 1.5 hours after dosing. Heparin absorption was verified by an increase in clotting time measured by the activated partial thromboplastin time (APTT) according to the method of Henry, J. B., Clinical Diagnosis and Management by Laboratory Methods, Philadelphia, Pa., W.B. Saunders (1979). Previous studies indicated baseline values of about 20 seconds.

[2] = Low molecular weight heparin (LMWH) oral/intracolonic delivery, plasma LMWH by anti-Factor Xa assay; assay type: in vivo, Sprague-Dawley rats; conditions: IC, rats, delivery agent compound 50 mg/kg, LMWH 750 IU/kg, 1 ml/kg
Experimental: Oral dosing (PO) and/or intracolonic (IC) compositions containing a delivery agent compound and low molecular weight heparin (LMWH) were prepared in 25% aqueous propylene glycol. […] Typically, the delivery agent compound and LMWH (Parnaparin, 91 IU/mg average molecular weight about 5,000, available from Opocrin, Modena, Italy) (typically 90-105 IU/mg, average molecular weight about 5,000) were mixed by vortex as dry powders. This dry mixture was dissolved in 25% v/v aqueous propylene glycol, vortexed, and placed in a sonicator (37° C.) to produce a clear solution. The pH was adjusted to about 7 (6.5-8.5) with 2N aqueous NaOH. The dosing solution was sonicated to produce a clear solution. The final volume was adjusted to 3.0 ml.
as §1
Citrated blood samples were collected by cardiac puncture following the administration of ketamine (88 mg/kg), typically at 0.5, 1.0, 2.0, 3.0 and 4.0 hours after dosing. LMWH absorption was verified by an increase in plasma LMWH measured by the anti-Factor Xa assay CHROMOSTRATE™ Heparin anti-Xa assay (available from Organon Teknika Corporation, Durham, N.C.). […] The peak of these mean plasma LMWH concentrations is reported below in Table 5.

[3] = Daptomycin oral delivery, plasma daptomycin by HPLC; assay type: in vivo, Sprague-Dawley rats; conditions: rats, delivery agent compound dose 200 mg/kg, daptomycin dose 50 mg/kg, volume dose 1 mL/kg
Experimental: Dosing solutions containing a delivery agent compound and daptomycin (Cubist Pharmaceuticals, Cambridge, Mass.) were prepared in 0.9% normal saline. […] This mixture was vortexed and placed in a sonicator (about 37° C.). The pH was adjusted to about 7.0-7.5 with aqueous HCl or NaOH. […] The mixture was vortexed to produce a uniform solution, also using sonication if necessary. The delivery agent compound solution was mixed with daptomycin from a stock solution (200 mg daptomycin/mL in 0.9% normal saline and the pH adjusted, if necessary, to between 6.0-7.0 with NaOH or HCl). The stock solution was stored frozen (−20° C.) wrapped in foil, then thawed and warmed gradually to about 25° C. before using. The delivery agent-daptomycin mixture was vortexed at low speed to produce a uniform solution. The pH was adjusted to about 7.0-7.5 with aqueous NaOH. The solution was then diluted with 0.9% normal saline to the desired volume (usually 2.0 ml) and concentration and stored wrapped in foil before use.
(§2) The typical dosing and sampling protocols were as follows.
Heparinized rat blood samples were collected via the ventral tail artery, typically at 0.25, 0.5, 0.75, 1.0, 2.0, and 4.0 hours after dosing, and stored on ice. Blood samples were then spun (centrifuged) at 11,500 rpm for 4 minutes at 4° C. to obtain the plasma (supernatant), which was stored at −70° C. The plasma daptomycin concentrations were measured by isocratic reversed phase HPLC, keeping samples at 4° C. during analysis. Blank plasma studies show baseline values of zero.
Daptomycin blood concentrations results from the individual animals in each dosage group were averaged for each time point.

[4] = Salmon calcitonin (sCT) oral delivery, serum sCT by EIA; conditions: rats, delivery agent compound dose 150 mg/kg, sCT dose 30 μg/kg
[5] = Interferon oral delivery, serum IFN by immunoassay; assay type: in vivo, Sprague-Dawley rats; conditions: rats, 1 ml/kg
Experimental: Dosing solutions of delivery agent compound and human interferon (IFN) were prepared in deionized water. […] This mixture was vortexed and placed in a sonicator (about 37° C.). The pH was adjusted to about 7.0 to 8.5 with aqueous NaOH. The mixture was vortexed to produce a uniform suspension or solution, also using sonication and heat if necessary.
as §2
Serum IFN concentrations were quantified using Cytoscreen Immunoassay Kit for human IFN-alpha (catalog # KHC4012 from Biosource International, Camarillo, Calif.). Previous studies indicated baseline values of about zero.

[6] = Cromolyn oral delivery, serum cromolyn by HPLC; assay type: in vivo, Sprague-Dawley rats; conditions: rats, delivery agent compound dose 200 mg/kg, cromolyn dose 25 mg/kg, in µg/mL (unit assumed)
Experimental: Dosing solutions containing a delivery agent compound (prepared as in Example 1) and cromolyn, disodium salt (cromolyn)(from Sigma Chemical Co., St. Louis, Mo.) were prepared in deionized water. […] This mixture was vortexed and placed in a sonicator (about 37° C.). The pH was adjusted to about 7-7.5 with aqueous NaOH. […] The mixture was vortexed to produce a uniform solution, also using sonication and heat if necessary. The delivery agent compound solution was mixed with cromolyn from a stock solution (175 mg cromolyn/ml in deionized water, pH adjusted, if necessary, with NaOH or HCl to about 7.0, stock solution stored frozen wrapped in foil, then thawed and heated to about 30° C. before using). The mixture was vortexed to produce a uniform solution, also using sonication and heat if necessary. The pH was adjusted to about 7-8 with aqueous NaOH. The solution was then diluted with water to the desired volume (usually 2.0 ml) and concentration and stored wrapped in foil before use.
as §2
Blood samples were collected via the tail artery, typically at 0.25, 0.5, 1.0 and 1.5 hours after dosing. Serum cromolyn concentrations were measured by HPLC. Samples were prepared as follows: 100 μl serum was combined with 100 μl 3N HCl and 300 μl ethyl acetate in an eppendorf tube. The tube was vortexed for 10 minutes and then centrifuged for 10 minutes at 10,000 rpm. 200 μl ethyl acetate layer was transferred to an eppendorf tube containing 67 μl 0.1 M phosphate buffer. The tube was vortexed for 10 minutes and then centrifuged for 10 minutes at 10,000 rpm. […] Previous studies indicated baseline values of about zero.

[7] = Recombinant human growth hormone (rhGH) oral delivery, serum rhGH by immunoassay; conditions: oral gavage, rats, delivery agent compound 200 mg/kg, rhGH 3 mg/kg
[8] = Insulin oral delivery, serum human insulin by ELISA; conditions: rats
Experimental: Oral dosing (PO) compositions of delivery agent compound and human zinc insulin (minimum 26 IU/mg available from Calbiochem—Novabiochem Corp, La Jolla, Calif.) were prepared in deionized water. […] The pH was adjusted to about 7 to 8.5 with NaOH or HCl. […] The final delivery agent compound dose, insulin dose and dose volume amounts are listed below in Table 8.
as §2
Serum insulin levels were determined with an Insulin ELISA Test Kit (Kit # DSL-10-1600 from Diagnostic Systems Laboratories, Inc., Webster, Tex.), modifying the standard protocol in order to optimize the sensitivity and linear range of the standard curve for the volumes and concentrations of the samples used in the present protocol. […] The five values for each time point were averaged and the results plotted as serum insulin concentration versus time.

[9] = Parathyroid hormone (PTH 1-34) oral/intracolonic delivery, serum PTH by radioimmunoassay; conditions: rats, oral (PO); delivery agent compound dose 100 mg/kg, PTH dose 200 μg/kg, volume dose 1 ml/kg
Experimental: Oral gavage (PO) and/or intracolonic (IC) dosing solutions of delivery agent compound and human parathyroid hormone residues 1-34 (PTH) in deionized water were prepared. A solution of the compound was made either with the sodium salt of the delivery agent compound or by converting the free acid to its sodium salt.
The typical dosing and sampling protocols were as follows. Male Sprague-Dawley rats weighing between 200-250 g were fasted for 24 hours and administered ketamine (44 mg/kg) and chlorpromazine (1.5 mg/kg) 15 minutes prior to dosing and again as needed to maintain anesthesia. A dosing group of five animals was administered one of the dosing solutions. For oral gavage (PO), an 11 cm Rusch 8 French catheter was adapted to a 1 ml syringe with a pipette tip. The syringe was filled with dosing solution by drawing the solution through the catheter, which was then wiped dry. The catheter was placed down the esophagus leaving 1 cm of tubing past the incisors. The dosing solution was administered by pressing the syringe plunger. For intracolonic (IC) dosing, a 7.5 cm Rusch catheter tube (French 8 or 6) was adapted to a syringe with an Eppendorf pipette tip. The syringe was filled with the dosing solution by drawing the solution through the catheter tube. The catheter tube was wiped dry. K-Y jelly was applied to the tip, avoiding contact with the eye of the tube, and the tube was inserted into the colon through the anus until the tube was no longer visible. The dosing solution was injected by pressing the syringe plunger, and the tube was removed.
Previous studies indicated baseline values of about zero. Results from the animals in each group were averaged for each time point.

[10] = Insulin pulmonary delivery, serum insulin by ELISA, ratio to insulin-alone control; assay type: in vivo, Sprague-Dawley rats; conditions: pulmonary, rats; volume 0.4 ml/kg, delivery agent compound 0.03 mg/kg, insulin 0.3 mg/kg (so in the source)
Experimental: Dosing compositions of delivery agent compound and human insulin in water were prepared. Typically, to 1.5 mg of delivery agent compound was added deionized water to bring the volume to 1.0 ml, and the solution was vortexed. […] The pH was adjusted to between about 7.0 to 8.5 with NaOH or HCl. […] The final delivery agent compound dose, insulin dose and volume dose amounts are listed below in Table 9.
The typical dosing and sampling protocols were as follows. […] A control group of five animals was dosed insulin alone. A tracheal instillator for rodents, equipped with light (available from Penn Century, Inc., Pittsburgh, Pa.) was filled with dosing solution and inserted down the throat until the needle went into the trachea (confirmed visually). The dosing solution was administered by pressing the plunger.
Blood samples from each animal were collected serially from the tail artery, typically at 5, 15, 30, 60 and 120 minutes after dosing. […] The ratio of the area under the curve (AUC) for the test group versus that of the control group is reported below. The ratio of the maximum serum insulin concentration (Cmax) for the test group versus that of the control group is also reported below.

[11] = IC (intracolonic), delivery agent compound 50 mg/kg, heparin 25 mg/kg, volume dose 1 ml
[12] = delivery agent compound 200 mg/kg, IFN 1 mg/kg
[13] = delivery agent compound 100 mg/kg, insulin 3 mg/kg, 0.5 ml/kg

Compound	Mean Peak APTT ± SD [1, 11]	Mean plasma Cmax [daptomycin] ± SD [3]	Mean Peak serum [cromolyn] ± SD (SE) ([6]; volume dose 1 ml/kg)	Mean Peak Serum sCT (pg/ml ± SD) (SE) ([4]; dose volume 1 (ml))	Mean Peak Serum [IFN] ± SD [5, 12]	Mean Peak Serum [PTH] (pg/mL) ± SD [9]	further results
O=C(O)c1ccc(COc2ccccc2O)cc1 [Compound 2]	48.788 ± 32.79 s	5070 ± 610 ng/mL					Mean Peak Plasma LMWH Concentration ± SD [2]: 1.038 ± 0.338 IU/ml; Mean Peak Serum sCT (pg/ml ± SD) (SE) ([4]; dose volume 1 (ml), 150 mg/kg): 628 ± 221 pg/mL and 449 ± 550 pg/mL and 320 ± 348 pg/mL
O=C(O)CCCCCOc1ccccc1O [Compound 5]		7082 ± 3860 ng/mL	0.63 ± 0.47	349 ± 348 pg/mL			Mean Peak APTT ± SD ([1]; PO (oral gavage), delivery agent compound 300 mg/kg, heparin 100 mg/kg, volume dose 3 ml): 135.7 ± 17.3 s; Mean Peak Serum [IFN] ± SD ([5]; delivery agent compound 50 mg/kg, IFN 0.5 mg/kg): 1.54 ± 0.26 ng/mL and 2.1 ± 0.95 ng/mL
CC(=O)c1ccccc1OCCCCCC(=O)O [Compound 11]	39.53 ± 8.25 s	13270 ± 13430 ng/mL		526 ± 415 pg/mL			Mean Peak Plasma LMWH Concentration ± SD [2]: 0.91 ± 0.414 IU/ml; Mean Peak Serum [rhGH] ([7]; volume dose 1 ml): 35.4 ng/mL
O=C(O)CCCCCOc1ccccc1 [Compound 15]		9500 ± 5490 ng/mL	0.38 ± 0.15		6.0324 ± 2.8 ng/mL		Mean Peak Serum [INS] ± SD ([8]; delivery agent compound 100 mg/kg, insulin 3 mg/kg, 1 ml/kg): 1332.2 ± 1906.4 μU/ml; Mean Peak Serum sCT (pg/ml ± SD) (SE) ([4]; dose volume 2 (ml)): 116 ± 88 pg/mL
CNC(=O)c1ccccc1OCCCCCCCC(=O)O [Compound 31]	47 ± 23.1 s					460 ± 194 pg/mL	Mean Peak Plasma LMWH Concentration ± SD ([2]; 50 mg/kg): 0.47 ± 0.287 IU/ml and 0.47 ± 0.332 IU/ml; Mean Peak Serum [INS] ± SD [8, 13]: 21.26 ± 6.22 μU/ml
CCNC(=O)c1ccccc1OCCCCCCCC(=O)O [Compound 33, 8-(2-(N-ethylbenzamide)oxy)octanoic acid]				96 ± 209 pg/mL		837 ± 347 pg/mL	Mean Peak Serum [INS] ± SD [8, 13]: 58.13 ± 52.86 μU/ml; Mean Peak Serum [rhGH] ([7]; volume dose 1 ml): 10.1 ng/mL and 6.9 ng/mL
CC(C)NC(=O)c1ccccc1OCCCCCCCC(=O)O [Compound 34]						538 ± 328 pg/mL	Mean Peak Serum sCT (pg/ml ± SD) (SE) ([4]; dose volume 1 (ml), 150 mg/kg): 103 ± 72 pg/mL and 137 ± 178 pg/mL
O=C(O)CCCCCCCOc1cccc(O)c1 [Compound 43]				50 ± 71 pg/mL	1 ± 2.1 ng/mL and 1.206 ng/mL		Mean Ratio of AUC for insulin + compound versus AUC for insulin alone [10]: 1.44; AUC (Total AUC(0→∞)) of daptomycin [3]: 4555* μg-min/mL and 2895* μg-min/mL and 2820* μg-min/mL
O=C(O)CCCCCCCOc1ccc(O)cc1 [Compound 47, (4-hydroxyphenyl)-8-oxyoctanoic acid]	370.3 ± 97.8 s		0.56 ± 0.39	62 ± 99 pg/mL	1.1 ± 0.85 ng/mL		Mean Ratio of AUC for insulin + compound versus AUC for insulin alone [10]: 0.63; Mean Peak serum [cromolyn] ± SD (SE) ([6]; volume dose 2 ml/kg): 0.55 ± 0.12; Mean Peak Serum [rhGH] ([7]; volume dose 2 ml): 9.9 ± 22.1 ng/mL
O=Cc1ccccc1OCCCCCCCC(=O)O [Compound 61]			0.54 ± 0.39 and 0.57 ± 0.36				Mean Peak Serum [INS] ± SD ([8]; delivery agent compound 200 mg/kg, insulin 0.5 mg/kg, 1 ml/kg): 58.99 ± 27.15 μU/ml; Mean Peak serum [cromolyn] ± SD (SE) ([6]; volume dose 2 ml/kg): 0.39 ± 0.21
